Assay results published in US20160184248A1, “COMPOSITIONS AND METHODS OF USE OF -HYDROXY-METHYLBUTYRATE (HMB) RESULTING IN AN ACUTE ENDOCRINE RESPONSE” (University of Central Florida Research Foundation Inc., priority 2014, published 2016).

Assays:
[1] = after HMB is fed; cited from earlier work
muscle proteolysis = conditions: isolated rat muscle, in vitro; cited from earlier work
insulin [2] = conditions: HMB treated rats, prolonged supplementation; cited from earlier work
insulin [3] = assay: Serum insulin response to the exercise protocol after HMB ingestion; assay type: in vivo, human; conditions: acute ingestion and training session
Description: (§1) Twenty resistance trained men (22.3±2.4 y, 1.8±0.1 m, […]) volunteered to participate in this study. Participants were randomly separated into one of two groups: ingestion of HMB free-acid (HMB-FA; n=10) or ingestion of placebo (PL; n=10). Following an explanation of all procedures, risks, and benefits, each participant gave his informed consent prior to participation in this study. The Institutional Review Board for the protection of human subjects of the University of Central Florida approved the research protocol. For inclusion in this study, participants were required to have a minimum of one year of resistance training experience, particularly in the squat exercise. Participants were not permitted to use any additional nutritional supplements or medications while enrolled in this study. Screening for nutritional and hormonal supplements was accomplished via a health history questionnaire completed during participant recruitment.
(§2) The investigation utilized a placebo-controlled, double-blind, randomized design. Participants reported to the laboratory on two occasions. […] Total training volume, calculated as repetitions×load, was recorded for further analysis. […]
(§3) Prior to analysis, all data were assessed to ensure normal distribution, homogeneity of variance, and sphericity. […]

testosterone = assay: Plasma testosterone after HMB-FA ingestion and resistance exercise; assay type: in vivo, human; conditions: acute ingestion and training session
Description: as §1, §2, §3

[4] = healthy young or old adults; cited from earlier work
growth hormone = assay: Growth hormone response to resistance exercise after HMB-FA ingestion (commercial kit); assay type: in vivo, human
Description: as §1
The investigation utilized a placebo-controlled, double-blind, randomized design. Participants reported to the laboratory on two occasions. On the first visit (T1), participants were tested for their one-repetition maximum (1-RM) on the barbell back squat, dead lift, and barbell split squat exercises. Participants were instructed to refrain from any form of exercise for a minimum of 72 hours prior to the resistance training bout (T2). On T2, participants completed an intense lower-body resistance exercise session, which consisted of four sets of the barbell back squat, dead lift, and barbell split squat exercises. The barbell back squat exercise was performed with 80% of the participant's 1-RM and the dead lift and barbell split squat exercises were performed with 70% of the participant's 1-RM. Rest intervals were set at 90 s between each set and between exercises. […] Total training volume, calculated as repetitions×load, was recorded for further analysis. […]
as §3

[5] = Plasma HMB by gas chromatography-mass spectrometry after HMB-FA ingestion and resistance exercise; assay type: in vivo, human; conditions: 1 g HMB-FA 30 min prior to exercise, p<0.01
Description: as §1, with “Participants were not permitted to use any additional nutritional supplements or medications while enrolled in this study. Screening for nutritional and hormonal supplements was accomplished via a health history questionnaire completed during participant recruitment.” left out
The investigation utilized a placebo-controlled, double-blind, randomized design. […] Total training volume, calculated as repetitions×load, was recorded for further analysis. […]
Plasma HMB was analyzed by Metabolic Technologies Inc. by gas chromatography-mass spectrometry with previously outlined methods to confirm HMB appearance in the plasma (17). Myoglobin concentration was determined via a Myoglobin ELISA kit (Calbiotec, Cat no: MG017C, Spring Valley, Calif., USA) and prepared per manufacturer's instructions. Determination of serum immunoreactivity values was determined using a BioTek Eon spectrophotometer (BioTek, Winooski, Vt., USA). […]

[6] = test system: insulin-like growth factor (IGF-1); assay: Plasma IGF-1 response to resistance exercise after HMB-FA ingestion (commercial kit); assay type: in vivo, human
Description: as §1
The investigation utilized a placebo-controlled, double-blind, randomized design. Participants reported to the laboratory on two occasions. On the first visit (T1), participants were tested for their one-repetition maximum (1-RM) on the barbell back squat, dead lift, and barbell split squat exercises. Participants were instructed to refrain from any form of exercise for a minimum of 72 hours prior to the resistance training bout (T2). On T2, participants completed an intense lower-body resistance exercise session, which consisted of four sets of the barbell back squat, dead lift, and barbell split squat exercises. The barbell back squat exercise was performed with 80% of the participant's 1-RM and the dead lift and barbell split squat exercises were performed with 70% of the participant's 1-RM. Rest intervals were set at 90 s between each set and between exercises. Participants were encouraged to perform as many repetitions as possible up to 10 repetitions for each set. Total training volume, calculated as repetitions×load, was recorded for further analysis.
The HMB-FA supplement consisted of one gram of β-hydroxy-β-methylbutyrate in the free-acid form (Beta-TOR®, Metabolic Technologies Inc., Ames, Iowa), reverse osmosis water, de-bittering agent, flavor, stevia extract, and potassium carbonate. Each serving of placebo contained one gram of polydextrose and was identical to the HMB-FA supplement in appearance and taste. The HMB-FA and PL treatments were produced and supplied by Metabolic Technologies Inc. (Ames, Iowa). One serving of HMB-FA or PL was consumed 30 minutes prior to the exercise session. All HMB-FA and PL ingestion took place in the Human Performance Lab and was witnessed by one of the investigators. […]
as §3

[7] = in vivo; cited from earlier work
muscle damage = conditions: initiated 30 min prior to an acute bout of exercise; cited from earlier work
[8] = AUC over PRE, IP, 30P, trapezoidal, p=0.02

Row | Structure (SMILES) | Loss of HMB to urine [1] | Inhibition of muscle proteolysis (muscle proteolysis) | Resting insulin concentrations (insulin [2]) | Effect on the insulin response to the exercise protocol (insulin [3]) | Circulating testosterone levels (testosterone) | Side effects [4] | Growth hormone concentration, elevation vs PL (growth hormone; 30P, p=0.100) | Growth hormone AUC vs PL (growth hormone; [8]) | Growth hormone concentration, elevation vs PL (growth hormone; IP, 1 g HMB-FA 30 min prior to exercise, p=0.021) | Plasma HMB concentrations ([5]; 30 min post-exercise (30P)) | Plasma HMB concentrations ([5]; immediately post-exercise (IP)) | IGF-1 concentration vs PL ([6]; 30P) | IGF-1 AUC vs PL [6, 8] | IGF-1 concentration vs PL ([6]; IP) | IGF-1 concentration vs PL ([6]; PRE (baseline), supplement given 15 min before the PRE blood draw, p=0.012) | Absorption compared with CaHMB [7] | Tissue clearance compared with CaHMB [7] | Attenuating muscle damage and ameliorating inflammatory response compared with CaHMB (muscle damage)
1 | CC(C)(O)CC(=O)O [HMB, β-hydroxy-β-methylbutyrate] | 20-50% | potent inhibitor of muscle proteolysis | significant increases | unable to demonstrate any effect | no differences | no side effects | – | – | – | – | – | – | – | – | – | – | – | –
2 | CC(C)(O)CC(=O)O [HMB-FA, β-hydroxy-β-methylbutyric acid] | – | – | – | – | – | – | no difference between the groups | significantly higher GH response | significantly higher than PL | significantly elevated | significantly elevated | No differences were observed between the groups | greater IGF-1 response | No differences were observed between the groups | elevated at baseline | absorbed quicker | greater tissue clearance | more efficacious
